# What was measured:
# SP-1 papilloma model [1] = assay: SP-1 papilloma three-dimensional model, area of cell cover (propidium iodide stained whole mounts); assay type: cell-based, mouse; settings: SP-1 model
# Procedure: In summary the in vitro models were developed using contracted collagen gels which supported a layer of mouse tumour cells or corresponding “normal” epithelial cells. The collagen gel was comprised of type I collagen, isolated from rat tail tendon, contracted using primary mouse fibroblasts, which were isolated from the dermis of newborn (or embryonic) mice. The collagen gels contracted to a size approximately 1.5 cm in diameter and were seeded with a single cell suspension of mouse tumour or normal epithelial cells. The models were initially maintained as submerged cultures, which allowed the cells to adhere to the collagen gel and grow. The models may thereafter be raised to the air-liquid interface (semi-submerged culture) to promote cell differentiation and formation of tissue. […] Test agents can be added to the model system at different stages of tumour development. The models are directly imaged as whole mounts by fluorescent labelling of cells either with vital dyes or genetic markers or after fixation and staining.
# In more detail, the collagen gel, described below, which supports the layer of epithelial cells (BalbMK (Weissman and Aaronson 1985), SP-1 (Strickland et al. 1988) or T52 Hufos (Greenhalgh and Yuspa 1988) in the prototype models), was contracted using dermal fibroblasts isolated from newborn mouse skin. The epidermis and dermis were separated from each other following an overnight digestion with trypsin at 4° C. The dermal tissue washed in sterile PBS, dissected-into very small pieces, suspended in 3-5 ml of MEM culture media and the slurry seeded into a 75 cm^2 plastic culture flask. This tissue was cultured without disturbance until the tissue pieces had adhered to the plastic flask. Fresh MEM (Minimum Essential Medium) supplemented with 10% foetal calf serum, 1% L-glutamine, 100 U/ml penicillin and 100 μg/ml streptomycin was added to the flask at this time. Fibroblast cell outgrowth from the dermal tissue explants was observed after several days. The excess tissue was removed and the fibroblast cells cultured to confluence. […]
# [2] = test system: T52 Hufos invasive tumour model; assay: T52 Hufos invasive tumour three-dimensional model, area of cell cover; assay type: cell-based, mouse; settings: 10^−7M RA, 10 day culture period (FIG. 7)
# Text: Hufos invasive tumour model over a 10 day culture period. In summary the in vitro models were developed using contracted collagen gels which supported a layer of mouse tumour cells or corresponding “normal” epithelial cells. The collagen gel was comprised of type I collagen, isolated from rat tail tendon, contracted using primary mouse fibroblasts, which were isolated from the dermis of newborn (or embryonic) mice. The collagen gels contracted to a size approximately 1.5 cm in diameter and were seeded with a single cell suspension of mouse tumour or normal epithelial cells. The models were initially maintained as submerged cultures, which allowed the cells to adhere to the collagen gel and grow. The models may thereafter be raised to the air-liquid interface (semi-submerged culture) to promote cell differentiation and formation of tissue. […] Test agents can be added to the model system at different stages of tumour development. The models are directly imaged as whole mounts by fluorescent labelling of cells either with vital dyes or genetic markers or after fixation and staining. In more detail, the collagen gel, described below, which supports the layer of epithelial cells (BalbMK (Weissman and Aaronson 1985), SP-1 (Strickland et al. 1988) or [MUT] Hufos (Greenhalgh and Yuspa 1988) in the prototype models), was contracted using dermal fibroblasts isolated from newborn mouse skin. […]
# SP-1 cells = assay: Growth curves of SP-1 cells in monolayer culture; assay type: cell-based; settings: Mus musculus, 240 h; SP-1 monolayer culture, 10 days in culture, 10^−7M RA; read-out: inhibition of the log phase of growth
# SP-1 papilloma model [3] = assay: SP-1 papilloma model, cell killing (H & E stained paraffin sections); assay type: cell-based, mouse; settings: SP-1 model
# Procedure: (§1) FIG. 10: Treatment of models with the anti-tumour drug cisplatin. H & E stained paraffin sections (×400 magnification) of SP-1 “papilloma” model (A, C and E) and T52-Hufos “invasive tumour” model (B, D and F). Shown are (A and B) untreated models (without cisplatin), (C and D) models treated with 50 μM cisplatin and (E and F) models treated with 500 μM cisplatin.
# (§2) Cell models were harvested at appropriate time intervals and fixed overnight, at room temperature in a solution of buffered formalin. A small piece of the model was removed and embedded in paraffin wax. Sections were cut and mounted onto glass slides and stained with haematoxylin and eosin (H & E stain). The remainder of the model washed in PBS (phosphate buffered saline), permeabilised with Triton X-100 and stained with propidium iodide (PI). The washed models were stored thereafter in the dark at 4° C. and maintained their fluorescence for several weeks. Whole mounts of the PI stained models were analysed using fluorescent microscopy through coverslips applied directly to the surface of the tissue.
# [4] = test system: T52 Hufos invasive tumour model; assay: T52 Hufos invasive tumour model, cell killing (H & E stained paraffin sections); assay type: cell-based, mouse
# Procedure: as §1, §2
# [5] = higher cisplatin concentration (500 μM, FIG. 10)
# [6] = lower cisplatin concentration (50 μM, FIG. 10)
SMILES,"effect on area of cell cover (SP-1 papilloma model [1]; 10^−6M RA (highest concentration studied), day 8 and day 10 (FIG. 6))","effect on area of cell cover (SP-1 papilloma model [1]; 10^−7M RA, vs untreated controls, time course to day 12 (FIG. 5))","degree of growth inhibition, concentration dependence (SP-1 papilloma model [1]; RA at 10^−6M, 10^−7M and 10^−8M (FIG. 6))",effect on area of cell cover [2],inhibition at 0.1 µM (SP-1 cells) [%],cell killing (SP-1 papilloma model [3]; [5]),cell killing (SP-1 papilloma model [3]; [6]),"cell killing [4, 5]","cell killing [4, 6]"
"CC1=C(/C=C/C(C)=C/C=C/C(C)=C/C(=O)O)C(C)(C)CCC1 [RA, All-trans-Retinoic acid]",marked effect,modest effect with less cell cover than the corresponding untreated controls,concentration dependent,no effect,46,–,–,–,–
N.N.[Cl][Pt][Cl] [cisplatin],–,–,–,–,–,extensive cell death,evidence of cell killing,extensive cell death,evidence of cell killing

# Source: patent US20070218509A1, “Murine Living Tissue Model & UsesTthereof” (priority 2003, published 2007)
